Assay results published in PMC4780440 (Organic & biomolecular chemistry, 2015).
Entries after “also recorded” stand apart in the source; their conditions may differ. Square brackets hold non-standard residues; d marks the D form. Peptide text beside a SMILES is read from it. * marks the point of attachment. X1 = O=C(O)CN(CCN(CC(=O)O)CC(=O)O)CCN(CC(=O)O)CC(=O)NCCCOCCOCCOCCCNC(=O)COCC(=O)*; Nle = CCCC[C@H](N)C(=O)O

Experiments:
hMC4R [1] = molecular target: T1, hMC4R (Homo sapiens, UniProt P32245); assay: Competitive binding assay against TRF probe 19, six-well plate protocol; conditions: for Relative Potency: compared to the monovalent MSH(4) construct with the same scaffold core; for Ki lower than / inhibition higher than the corresponding monovalent molecule: divalent versus monovalent, against probe 19; for inhibition of the binding and uptake of probe 19: over the concentration range tested (10 μM–0.10 nM), probe 19 20 nM
T1 sequence (P32245 whole entry): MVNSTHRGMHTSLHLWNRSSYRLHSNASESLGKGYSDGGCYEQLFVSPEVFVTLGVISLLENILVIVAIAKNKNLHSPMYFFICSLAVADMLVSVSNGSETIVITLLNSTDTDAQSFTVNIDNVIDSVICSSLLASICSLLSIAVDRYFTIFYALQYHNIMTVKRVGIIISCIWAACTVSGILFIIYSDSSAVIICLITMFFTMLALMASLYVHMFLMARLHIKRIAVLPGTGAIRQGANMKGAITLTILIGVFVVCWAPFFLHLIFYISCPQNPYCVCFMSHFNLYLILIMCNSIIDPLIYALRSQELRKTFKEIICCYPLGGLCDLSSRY

hMC4R [2] = molecular target: T1, hMC4R; conditions: saturation binding assays using older protocol (96-well plates); ref [14]; cited from earlier work

Row | Ki (hMC4R [1]) [nM] | Relative Potency (hMC4R [1]) | Ki lower than / inhibition higher than the corresponding monovalent molecule (hMC4R [1]) [fold] | Compound | inhibition of the binding and uptake of probe 19 (hMC4R [1]) | Kd (hMC4R [2]) [nM]
1 | 36 ± 4 | 61 | – | N=C(N)NCCC[C@H](NC(=O)[C@@H](Cc1ccccc1)NC(=O)[C@H](Cc1c[nH]cn1)NC(=O)CCCCCn1cc(CN(Cc2cn(CCCCCC(=O)N[C@@H](Cc3c[nH]cn3)C(=O)N[C@H](Cc3ccccc3)C(=O)N[C@@H](CCCNC(=N)N)C(=O)N[C@@H](Cc3c[nH]c4ccccc34)C(N)=O)nn2)Cc2cn(CCCCCC(=O)N[C@@H](Cc3c[nH]cn3)C(=O)N[C@H](Cc3ccccc3)C(=O)N[C@@H](CCCNC(=N)N)C(=O)N[C@@H](Cc3c[nH]c4ccccc34)C(N)=O)nn2)nn1)C(=O)N[C@@H](Cc1c[nH]c2ccccc12)C(N)=O [Compound 16c, 6,6′,6″-(4,4′,4″-(Nitrilotris(methylene))tris(1H-1,2,3-triazole-4,1-diyl))tris(N-((S)-1-(((R)-1-(((S)-1-(((S)-1-amino-3-(1H-indol-3-yl)-1-oxopropan-2-yl)amino)-5-guanidino-1-oxopentan-2-yl)amino)-1-oxo-3-phenylpropan-2-yl)amino)-3-(1H-imidazol-4-yl)-1-oxopropan-2-yl)hexanamide)] | – | –
2 | 91 ± 13 | 11 | 11 | N=C(N)NCCC[C@H](NC(=O)[C@@H](Cc1ccccc1)NC(=O)[C@H](Cc1c[nH]cn1)NC(=O)CCCCCn1cc(COc2cc(OCc3cn(CCCCCC(=O)N[C@@H](CO)C(N)=O)nn3)cc(OCc3cn(CCCCCC(=O)N[C@@H](Cc4c[nH]cn4)C(=O)N[C@H](Cc4ccccc4)C(=O)N[C@@H](CCCNC(=N)N)C(=O)N[C@@H](Cc4c[nH]c5ccccc45)C(N)=O)nn3)c2)nn1)C(=O)N[C@@H](Cc1c[nH]c2ccccc12)C(N)=O [Compound 14b, 6,6′-(4,4′-(((5-((1-(6-((1-Amino-3-hydroxy-1-oxopropan-2-yl)amino)-6-oxohexyl)-1H-1,2,3-triazol-4-yl)methoxy)-1,3-phenylene)bis(oxy))bis(methylene))bis(1H-1,2,3-triazole-4,1-diyl))bis(N-((S)-1-(((R)-1-(((S)-1-(((S)-1-amino-3-(1H-indol-3-yl)-1-oxopropan-2-yl)amino)-5-guanidino-1-oxopentan-2-yl)amino)-1-oxo-3-phenylpropan-2-yl)amino)-3-(1H-imidazol-4-yl)-1-oxopropan-2-yl)hexanamide)] | – | –
3 | 69 ± 12 | 32 | 32 | N=C(N)NCCC[C@H](NC(=O)[C@@H](Cc1ccccc1)NC(=O)[C@H](Cc1c[nH]cn1)NC(=O)CCCCCn1cc(CN(Cc2cn(CCCCCC(=O)N[C@@H](CO)C(N)=O)nn2)Cc2cn(CCCCCC(=O)N[C@@H](Cc3c[nH]cn3)C(=O)N[C@H](Cc3ccccc3)C(=O)N[C@@H](CCCNC(=N)N)C(=O)N[C@@H](Cc3c[nH]c4ccccc34)C(N)=O)nn2)nn1)C(=O)N[C@@H](Cc1c[nH]c2ccccc12)C(N)=O [Compound 16b, 6,6′-(4,4′-((((1-(6-(((S)-1-Amino-3-hydroxy-1-oxopropan-2-yl)amino)-6-oxohexyl)-1H-1,2,3-triazol-4-yl)methyl)azanediyl)bis(methylene))bis(1H-1,2,3-triazole-4,1-diyl))bis(N-((S)-1-(((R)-1-(((S)-1-(((S)-1-amino-3-(1H-indol-3-yl)-1-oxopropan-2-yl)amino)-5-guanidino-1-oxopentan-2-yl)amino)-1-oxo-3-phenylpropan-2-yl)amino)-3-(1H-imidazol-4-yl)-1-oxopropan-2-yl)hexanamide)] | – | –
4 | – | – | – | NC(=O)[C@H](CO)NC(=O)CCCCCn1cc(COc2cc(OCc3cn(CCCCCC(=O)N[C@@H](CO)C(N)=O)nn3)cc(OCc3cn(CCCCCC(=O)N[C@@H](CO)C(N)=O)nn3)c2)nn1 [Compound 12a, 6,6′,6″-(4,4′,4″-((Benzene-1,3,5-triyltris(oxy))tris(methylene))tris(1H-1,2,3-triazole-4,1-diyl))tris(N-((S)-1-amino-3-hydroxy-1-oxopropan-2-yl)hexanamide)] | did not inhibit; also recorded: not competitive inhibitors | –
5 | – | – | – | NC(=O)[C@H](CO)NC(=O)CCCCCn1cc(CN(Cc2cn(CCCCCC(=O)N[C@@H](CO)C(N)=O)nn2)Cc2cn(CCCCCC(=O)N[C@@H](CO)C(N)=O)nn2)nn1 [Compound 15a, 6,6′,6″-(4,4′,4″-(Nitrilotris(methylene))tris(1H-1,2,3-triazole-4,1-diyl))tris(N-((S)-1-amino-3-hydroxy-1-oxopropan-2-yl)hexanamide)] | did not inhibit; also recorded: not competitive inhibitors | –
6 | 25 ± 4 | – | – | N=C(N)NCCC[C@H](NC(=O)[C@@H](Cc1ccccc1)NC(=O)[C@H](Cc1c[nH]cn1)NC(=O)CCCCCn1cc(CN2CCN(Cc3cn(CCCCCC(=O)N[C@@H](Cc4c[nH]cn4)C(=O)N[C@H](Cc4ccccc4)C(=O)N[C@@H](CCCNC(=N)N)C(=O)N[C@@H](Cc4c[nH]c5ccccc45)C(N)=O)nn3)CCN(Cc3cn(CCCCCC(=O)N[C@@H](Cc4c[nH]cn4)C(=O)N[C@H](Cc4ccccc4)C(=O)N[C@@H](CCCNC(=N)N)C(=O)N[C@@H](Cc4c[nH]c5ccccc45)C(N)=O)nn3)CC2)nn1)C(=O)N[C@@H](Cc1c[nH]c2ccccc12)C(N)=O [Compound 18, 6,6′,6″-(4,4′,4″-((1,4,7-Triazonane-1,4,7-triyl)tris(methylene))tris(1H-1,2,3-triazole-4,1-diyl))tris(N-((S)-1-(((R)-1-(((S)-1-(((S)-1-amino-3-(1H-indol-3-yl)-1-oxopropan-2-yl)amino)-5-guanidino-1-oxopentan-2-yl)amino)-1-oxo-3-phenylpropan-2-yl)amino)-3-(1H-imidazol-4-yl)-1-oxopropan-2-yl)hexanamide)] | – | –
7 | – | – | – | CCCC[C@H](NC(=O)[C@H](CO)NC(=O)COCC(=O)NCCCOCCOCCOCCCNC(=O)CN(CCN(CCN(CC(=O)O)CC(=O)O)CC(=O)O)CC(=O)O)C(=O)N[C@@H](CCC(=O)O)C(=O)N[C@@H](Cc1c[nH]cn1)C(=O)N[C@H](Cc1ccccc1)C(=O)N[C@@H](CCCNC(=N)N)C(=O)N[C@@H](Cc1c[nH]c2ccccc12)C(N)=O [Compound 19, Eu-DTPA-PEGO-MSH(7)-NH2] (X1-S[Nle]EH[dF]RW-NH2) | – | 27 ± 4
8 | 990 ± 140 | 1 | – | N=C(N)NCCC[C@H](NC(=O)[C@@H](Cc1ccccc1)NC(=O)[C@H](Cc1c[nH]cn1)NC(=O)CCCCCn1cc(COc2cc(OCc3cn(CCCCCC(=O)N[C@@H](CO)C(N)=O)nn3)cc(OCc3cn(CCCCCC(=O)N[C@@H](CO)C(N)=O)nn3)c2)nn1)C(=O)N[C@@H](Cc1c[nH]c2ccccc12)C(N)=O [Compound 14a, 6,6′-(4,4′-(((5-((1-((6S,9R,12S)-12-((1H-Imidazol-4-yl)methyl)-1-amino-6-(((S)-1-amino-3-(1H-indol-3-yl)-1-oxopropan-2-yl)carbamoyl)-9-benzyl-1-imino-8,11,14-trioxo-2,7,10,13-tetraazanonadecan-19-yl)-1H-1,2,3-triazol-4-yl)methoxy)-1,3-phenylene)bis(oxy))bis(methylene))bis(1H-1,2,3-triazole-4,1-diyl))bis(N-(1-amino-3-hydroxy-1-oxopropan-2-yl)hexanamide)] | – | –
